The target in test [1] is Phosphatidylinositol 4,5-bisphosphate 3-kinase catalytic subunit alpha isoform (Homo sapiens, UniProt P42336). Briefly: Inhibition of PI3Kalpha (unknown origin) by mobility shift assay.
The test system of test [2] is MV4-11. Briefly: cells. The test is classed as functional, cell-based. The note with it: Homo sapiens, MV4-11, 72 h.
Description: Antiproliferative activity against human MV4-11 cells assessed as inhibition of cell proliferation incubated for 72 hrs by CCK8 assay
The subject of test [3] is K562. Briefly: cells. The format is functional, cell-based. The note with it: Homo sapiens, K562, 72 h.
Description: Antiproliferative activity against human K562 cells assessed as inhibition of cell proliferation incubated for 72 hrs by CCK8 assay
In test [4] the test system is HGC-27. Briefly: Antiproliferative activity against human HGC-27 cells assessed as inhibition of cell proliferation incubated for 72 hrs by MTT assay. The note with it: HGC-27, 72 h. The test is classed as functional, cell-based. (In general: Tetrazolium assays rely on reduction of a dye to a coloured formazan, in cell work by metabolically active cells.)
In test [5] the test system is HepG2. Briefly: Antiproliferative activity against human HepG2 cells assessed as inhibition of cell proliferation incubated for 72 hrs by MTT assay. The format is functional, cell-based. Conditions: HepG2, 72 h.
In test [6] the test system is MV4-11. Briefly: Induction of apoptosis in human MV4-11 cells assessed as viable cells at 50 nM incubated for 48 hrs by Annexin V-FITC/PI staining based flow cytometry (reference value: 96.5%). The note with it: read-out: Activity. The format is functional. For orientation: In flow cytometry, cells or beads pass a laser one at a time.
Test [7] relates to MV4-11. Briefly: Induction of apoptosis in human MV4-11 cells assessed as necrotic cells at 50 nM incubated for 48 hrs by Annexin V-FITC/PI staining based flow cytometry (reference value: 0.51%). The format is functional.
Test [8] relates to MV4-11. Briefly: Induction of apoptosis in human MV4-11 cells assessed as viable cells at 450 nM incubated for 48 hrs by Annexin V-FITC/PI staining based flow cytometry (reference value: 96.5%). The format is functional. Conditions: read-out: Activity.
Test [9] has as its system MV4-11. Briefly: Induction of apoptosis in human MV4-11 cells assessed as total apoptotic cells at 150 nM incubated for 48 hrs by Annexin V-FITC/PI staining based flow cytometry (reference value: 2.99%). The format is functional.
In test [10] the test system is MV4-11. Briefly: Induction of apoptosis in human MV4-11 cells assessed as total apoptotic cells at 450 nM incubated for 48 hrs by Annexin V-FITC/PI staining based flow cytometry (reference value: 2.99%). The format is functional.
In test [11] the test system is MV4-11. Briefly: Induction of cell cycle arrest in human MV4-11 cells assessed as accumulation of cells at S phase at 50 nM incubated for 48 hrs by […]PI staining based flow cytometry (reference value: 45.5%). The test is classed as functional.
Test [12] concerns MV4-11. Briefly: Induction of cell cycle arrest in human MV4-11 cells assessed as accumulation of cells at S phase at 150 nM incubated for 48 hrs by […]PI staining based flow cytometry (reference value: 45.5%). The format is functional.
In test [13] the test system is MV4-11. Briefly: Induction of cell cycle arrest in human MV4-11 cells assessed as accumulation of cells at G0/G1 phase at 450 nM incubated for 48 hrs by […]PI staining based flow cytometry (reference value: 33.1%). The test is classed as functional.
Test [14] has as its system MV4-11. Briefly: Induction of cell cycle arrest in human MV4-11 cells assessed as accumulation of cells at G2/M phase at 450 nM incubated for 48 hrs by […]PI staining based flow cytometry (reference value: 11.5%). The format is functional.
Test [15] concerns MV4-11. Briefly: Induction of cell cycle arrest in human MV4-11 cells assessed as accumulation of cells at G0/G1 phase at 1350 nM incubated for 48 hrs by […]PI staining based flow cytometry (reference value: 33.1%). The test is classed as functional.
Test [16] concerns MV4-11. Briefly: Induction of cell cycle arrest in human MV4-11 cells assessed as accumulation of cells at S phase at 1350 nM incubated for 48 hrs by […]PI staining based flow cytometry (reference value: 45.5%). The format is functional.
In test [17] the test system is MV4-11. Briefly: Induction of cell cycle arrest in human MV4-11 cells assessed as accumulation of cells at G2/M phase at 1350 nM incubated for 48 hrs by […]PI staining based flow cytometry (reference value: 11.5%). The test is classed as functional.
Test [18] concerns the target T1, Protein deacetylase HDAC6 (Homo sapiens) (UniProt Q9UBN7).
T1 sequence (whole entry): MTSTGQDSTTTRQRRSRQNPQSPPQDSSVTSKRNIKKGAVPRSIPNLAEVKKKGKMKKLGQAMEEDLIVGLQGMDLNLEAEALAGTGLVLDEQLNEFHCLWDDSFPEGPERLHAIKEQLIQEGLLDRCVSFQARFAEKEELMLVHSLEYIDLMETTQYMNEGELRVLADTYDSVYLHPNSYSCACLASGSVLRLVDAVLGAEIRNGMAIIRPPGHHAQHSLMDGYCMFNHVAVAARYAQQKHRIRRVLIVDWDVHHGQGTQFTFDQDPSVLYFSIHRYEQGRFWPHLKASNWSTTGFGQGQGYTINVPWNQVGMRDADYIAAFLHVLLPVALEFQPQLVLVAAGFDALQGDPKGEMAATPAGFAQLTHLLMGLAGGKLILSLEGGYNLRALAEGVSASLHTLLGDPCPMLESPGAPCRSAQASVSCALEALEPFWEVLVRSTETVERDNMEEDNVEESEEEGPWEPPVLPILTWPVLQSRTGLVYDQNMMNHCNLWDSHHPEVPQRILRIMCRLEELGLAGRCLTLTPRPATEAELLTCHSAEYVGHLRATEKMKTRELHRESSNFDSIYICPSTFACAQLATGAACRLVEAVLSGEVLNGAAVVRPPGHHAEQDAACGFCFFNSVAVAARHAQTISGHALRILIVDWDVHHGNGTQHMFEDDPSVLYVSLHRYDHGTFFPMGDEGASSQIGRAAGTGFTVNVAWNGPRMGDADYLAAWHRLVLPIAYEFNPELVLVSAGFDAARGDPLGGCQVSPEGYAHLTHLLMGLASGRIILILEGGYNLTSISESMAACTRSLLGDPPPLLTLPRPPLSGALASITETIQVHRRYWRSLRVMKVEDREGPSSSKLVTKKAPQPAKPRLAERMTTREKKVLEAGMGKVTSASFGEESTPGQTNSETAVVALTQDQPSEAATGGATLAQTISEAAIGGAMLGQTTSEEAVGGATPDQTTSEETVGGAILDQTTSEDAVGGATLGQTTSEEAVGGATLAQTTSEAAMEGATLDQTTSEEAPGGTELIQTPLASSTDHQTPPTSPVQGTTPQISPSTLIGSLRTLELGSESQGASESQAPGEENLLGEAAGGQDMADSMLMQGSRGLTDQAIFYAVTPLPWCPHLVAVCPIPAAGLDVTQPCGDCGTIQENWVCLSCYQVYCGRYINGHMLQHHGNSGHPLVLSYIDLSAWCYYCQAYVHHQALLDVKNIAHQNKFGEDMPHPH
The note with it: dose 100.0 nM.
Description: Inhibition of HDAC6 (unknown origin) at 100 nM

By IC50 is commonly meant the concentration needed to halve the response being measured. By inhibition is commonly meant how much of the control response was suppressed.

Chain of Phosphatidylinositol 4,5-bisphosphate 3-kinase catalytic subunit alpha isoform (P42336 whole entry, canonical isoform): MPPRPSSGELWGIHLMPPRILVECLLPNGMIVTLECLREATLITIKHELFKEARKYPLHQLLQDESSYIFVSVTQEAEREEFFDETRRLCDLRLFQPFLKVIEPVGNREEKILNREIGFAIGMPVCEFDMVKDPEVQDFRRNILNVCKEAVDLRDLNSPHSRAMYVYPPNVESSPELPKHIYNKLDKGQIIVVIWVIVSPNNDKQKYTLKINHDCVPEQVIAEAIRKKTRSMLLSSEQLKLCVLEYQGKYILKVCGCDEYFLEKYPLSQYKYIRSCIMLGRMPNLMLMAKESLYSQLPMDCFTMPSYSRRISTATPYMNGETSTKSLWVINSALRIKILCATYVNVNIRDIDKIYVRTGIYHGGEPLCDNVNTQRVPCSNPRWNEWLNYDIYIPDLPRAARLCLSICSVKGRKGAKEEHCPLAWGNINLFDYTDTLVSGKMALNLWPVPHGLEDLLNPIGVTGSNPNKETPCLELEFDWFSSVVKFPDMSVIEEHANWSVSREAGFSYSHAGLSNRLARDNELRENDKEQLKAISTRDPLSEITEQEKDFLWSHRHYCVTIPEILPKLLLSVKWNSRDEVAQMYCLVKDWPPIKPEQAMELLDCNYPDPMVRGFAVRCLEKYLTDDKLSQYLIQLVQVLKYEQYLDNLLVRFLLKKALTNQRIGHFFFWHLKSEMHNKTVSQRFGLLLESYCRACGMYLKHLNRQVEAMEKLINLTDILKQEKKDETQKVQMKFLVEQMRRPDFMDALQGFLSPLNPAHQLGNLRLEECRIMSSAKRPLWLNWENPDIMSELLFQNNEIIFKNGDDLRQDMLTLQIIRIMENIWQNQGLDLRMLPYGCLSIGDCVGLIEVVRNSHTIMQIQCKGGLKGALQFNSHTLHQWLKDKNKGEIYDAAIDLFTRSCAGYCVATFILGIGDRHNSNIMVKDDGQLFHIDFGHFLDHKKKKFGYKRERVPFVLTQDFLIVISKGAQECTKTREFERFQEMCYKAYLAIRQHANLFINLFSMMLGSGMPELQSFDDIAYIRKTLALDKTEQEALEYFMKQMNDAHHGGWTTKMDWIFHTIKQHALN

In the case of `O=C(NO)c1ccc(Cn2cc(-c3cccc4[nH]ncc34)nc(N3CCOCC3)c2=O)cc1`, the IC50 in [1] was determined as 373 nM; in test [2] it was 90 nM; in test [3], 120 nM; in test [4] it was 880 nM; in test [5] it was 1190 nM. Also, the viability at 0.05 µM in test [6] was 92.5%. In addition, the Activity in test [7] came out at 0.34%; in test [9], 16.94%; in test [10], 80.7%; in test [11] it was 37.8%; in test [12], 31%; in test [13], 15.1%. Besides, the Activity in test [14] was 38.3%; in [15] it was 15.2%; in [16] it was 25.2%; in test [17] it was 51.8%. The viability at 0.45 µM in test [8] is 18.7%. In addition, the inhibition in test [18] came out at 90%.
